For 20 compounds, IC50 results are on record in patent US20240293392A1, “INHIBITOR COMPOUNDS” (NeoPhore Limited, priority 2021, published 2024).

In assay [1] the target is T1, recombinant N-terminal MLH1 (residues 15-340) (Homo sapiens, UniProt P40692).
T1 construct: recombinant N-terminal MLH1 (residues 15-340)
T1 sequence (P40692 15-340): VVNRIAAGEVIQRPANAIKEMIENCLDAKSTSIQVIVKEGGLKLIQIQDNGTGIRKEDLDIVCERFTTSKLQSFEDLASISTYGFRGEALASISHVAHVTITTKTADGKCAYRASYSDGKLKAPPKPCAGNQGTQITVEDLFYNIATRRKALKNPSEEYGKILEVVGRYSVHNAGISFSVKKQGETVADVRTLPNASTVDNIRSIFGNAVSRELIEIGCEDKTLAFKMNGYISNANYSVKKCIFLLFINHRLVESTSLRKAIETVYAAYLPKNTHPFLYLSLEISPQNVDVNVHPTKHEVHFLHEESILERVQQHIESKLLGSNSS
Put plainly: Fluorescence Polarisation Assay for MLH1. It counts as binding. The following applies: fluorescence polarisation probe displacement; 100 nM N-terminal MLH1, 5 nM probe compound. The procedure: Fluorescence Polarisation Assay for MLH1
Test compounds, as 10 mM DMSO stocks, were dispensed into a 384-well Low Flange Black Flat Bottom Polystyrene Non-binding Surface plate (Corning®, item number 3575) using a Labcyte Echo acoustic liquid handler. Test compounds were added to wells in columns 1-22 whilst DMSO was added to wells in columns 23 and 24 in order to normalise the plate. 20 μL of a 2× solution (200 nM) of recombinant N-terminal MLH1 (residues 15-340) in assay buffer (25 mM HEPES, pH 7.5, 250 mM NaCl, 10 mM MgCl2, 0.01% Triton X-100, 5 mM dithiothreitol) was added to all wells in columns 1-23 and 20 μL assay buffer was added to all wells in column 24 using an E1-ClipTip pipette (ThermoFisher). Plates were centrifuged for 1 minute at 250×g and were incubated at room temperature for 30 minutes prior to the addition of 20 μL of 2× (10 nM) 5-((5-(4-((2-(2,4-dihydroxy-5-isopropylbenzoyl)isoindolin-5-yl)methyl)piperazin-1-yl)pentyl)carbamoyl)-2-(6-(dimethylamino)-3-(dimethyliminio)-3H-xanthen-9-yl)benzoate in assay buffer (prepared from a 1 mM DMSO stock) with an E1-ClipTip pipette (ThermoFisher). The final concentration of N-terminal MLH1 was 100 nM and the final concentration of the probe compound was 5 nM. Compound plates were centrifuged for 1 minute at 250×g for 1 minute and immediately read on a PheraStar FSX (fitted with 384-well aperture spoon and 590 675 675 FP optic module). The gain and focus were adjusted before each plate was read so that the polarisation of a no enzyme control (column 24) was equal to 35 mP. Data were normalised against the no inhibitor controls (column 23) and no enzyme controls (column 24).
(Polarisation of emitted light reports the rotation of a fluorescent probe.)

Assay [2] addresses T2, recombinant N-terminal PMS2 (residues 1-365) (Homo sapiens, UniProt P54278).
T2 construct: recombinant N-terminal PMS2 (residues 1-365)
T2 sequence (P54278 1-365): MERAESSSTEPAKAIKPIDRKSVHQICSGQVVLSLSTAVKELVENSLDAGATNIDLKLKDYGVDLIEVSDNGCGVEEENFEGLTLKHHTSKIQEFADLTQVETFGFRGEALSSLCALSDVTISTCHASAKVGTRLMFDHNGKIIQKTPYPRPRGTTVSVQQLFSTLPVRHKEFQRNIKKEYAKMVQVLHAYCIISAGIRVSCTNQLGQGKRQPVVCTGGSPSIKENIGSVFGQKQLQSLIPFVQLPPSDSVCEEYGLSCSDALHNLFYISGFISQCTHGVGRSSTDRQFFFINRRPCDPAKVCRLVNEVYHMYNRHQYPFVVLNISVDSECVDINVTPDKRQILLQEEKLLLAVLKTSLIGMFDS
Put plainly: Fluorescence Polarisation Assay for PMS2. It counts as binding. The following applies: fluorescence polarisation probe displacement; 10 nM N-terminal PMS2, 5 nM probe compound; read-out: PMS2 IC50. How it is done: Fluorescence Polarisation Assay for PMS2
For single point screening, test compounds were added to wells in columns 1-22 whilst DMSO was added to wells in columns 23 and 24 in order to normalise the plate. For potency determination, serial dilutions of test compounds were added to wells in columns 3-22 and DMSO volume was normalised across the plate.
20 μL assay buffer was added to all wells in columns 1 and 24 (column 24 only for single point screening) using a MultiDrop Combi (ThermoFisher). Plates were centrifuged for 1 minute at 250×g and were incubated at room temperature for 30 minutes prior to the addition of 20 μL of 2× (20 nM) of 5-((5-(4-((2-(2,4-dihydroxy-5-isopropylbenzoyl)isoindolin-5-yl)methyl)piperazin-1-yl)pentyl)carbamoyl)-2-(6-(dimethylamino)-3-(dimethyliminio)-3H-xanthen-9-yl)benzoate (referred to hereinafter as “probe compound”) in assay buffer (prepared from a 100 μM DMSO stock) with a MultiDrop Combi (ThermoFisher). The final concentration of N-terminal PMS2 was 10 nM and the final concentration of probe compound was 5 nM.
Compound plates were centrifuged for 1 minute at 250×g for 1 minute and were incubated at room temperature for 1 hour before being read on a PheraStar FSX (fitted with 384-well aperture spoon and 540 590 590 FP optic module). The gain and focus were adjusted before each plate was read so that the polarisation of a no enzyme control (column 24) was equal to 35 mP. Data were normalised against the no inhibitor controls (column 23) and no enzyme controls (column 24).

Structures can show the parent of a compound that is named as a salt.

In general, IC50 refers to the concentration needed to halve the response being measured. On to `O=C(c1c(O)cc(O)cc1OCc1ccccc1)N1Cc2cccc(Nc3cn[nH]c3)c2C1` [Example 34, (4-((1H-Pyrazol-4-yl)amino)isoindolin-2-yl)(2-(benzyloxy)-4,6-dihydroxyphenyl)methanone], for which the half-inhibitory concentration (IC50) in assay [1] is under 1 µM; in assay [2] it was 1 to 10 µM.
On the same counts, the results for `O=C(Nc1cccc2c1CN(C(=O)c1c(O)cc(O)cc1OCc1ccccc1)CC2)C1CCOC1` (stereo not shown) [Example 102, N-(2-(2-(Benzyloxy)-4,6-dihydroxybenzoyl)-1,2,3,4-tetrahydroisoquinolin-8-yl) tetrahydrofuran-3-carboxamide] are over 10 µM and over 10 µM.
In the same order, the values of `Cn1cc(Nc2cccc3c2CN(C(=O)c2c(O)cc(O)cc2OCc2ccccc2)C3)cn1` [Example 21, (2-(Benzyloxy)-4,6-dihydroxyphenyl)(4-((1-methyl-1H-pyrazol-4-yl)amino)isoindolin-2-yl)methanone] are 1 to 10 µM and 1 to 10 µM.
For the compound `O=C(c1c(O)cc(O)cc1OCc1ccccc1)N1CCc2ccc(CNC3COC3)cc2C1` [Example 84, (2-(Benzyloxy)-4,6-dihydroxyphenyl)(7-((oxetan-3-ylamino)methyl)-3,4-dihydroisoquinolin-2(1H)-yl)methanone], the 50% inhibitory concentration (IC50) in assay [1] and in assay [2] was 1 to 10 µM each time.
Turning to `CC(=O)N1CC(Nc2cccc3c2CN(C(=O)c2c(O)cc(O)cc2OCc2ccccc2)CC3)C1` [Example 146, 1-(3-((2-(2-(Benzyloxy)-4,6-dihydroxybenzoyl)-1,2,3,4-tetrahydroisoquinolin-8-yl)amino)azetidin-1-yl)ethan-1-one], the results for the concentration for half-maximal inhibition (IC50) in assay [1] and in assay [2] were under 1 µM and 1 to 10 µM, respectively.
`CC(=O)N1CCC(Nc2cccc3c2CN(C(=O)c2c(O)cc(O)cc2OCc2ccccc2)CC3)CC1` [Example 69, 1-(4-((2-(2-(Benzyloxy)-4,6-dihydroxybenzoyl)-1,2,3,4-tetrahydroisoquinolin-8-yl)amino)piperidin-1-yl)ethan-1-one]: the IC50 in assay [1] was 1 to 10 µM; in assay [2] it was over 10 µM.
On the same counts, the results for `O=C(c1c(O)cc(O)cc1OCc1ccccc1)N1CCc2cccc(Nc3cccnc3)c2C1` [Example 118, (2-(Benzyloxy)-4,6-dihydroxyphenyl)(8-(pyridin-3-ylamino)-3,4-dihydroisoquinolin-2(1H)-yl)methanone] are 1 to 10 µM and 1 to 10 µM.
With `CN(C)Cc1cc2c(c(N[C@@H]3CCOC3)c1)CN(C(=O)c1c(O)cc(O)cc1OCc1ccccc1)CC2` [Example 126, (R)-(2-(Benzyloxy)-4,6-dihydroxyphenyl)(6-((dimethylamino)methyl)-8-((tetrahydrofuran-3-yl)amino)-3,4-dihydroisoquinolin-2(1H)-yl)methanone], the IC50 in assay [1] was under 1 µM; in assay [2], 1 to 10 µM.
In the same order, the values of `CNc1cccc2c1CN(C(=O)c1c(O)cc(O)cc1OCc1ccccc1)C2` [Example 29, (2-(Benzyloxy)-4,6-dihydroxyphenyl)(4-(methylamino)isoindolin-2-yl)methanone] are 1 to 10 µM and 1 to 10 µM.
On to `O=C(c1c(O)cc(O)cc1OCc1ccccc1)N1Cc2cccc(CN3CCOCC3)c2C1` [Example 10, (2-(Benzyloxy)-4,6-dihydroxyphenyl)(4-(morpholinomethyl)isoindolin-2-yl)methanone], for which the 50% inhibitory concentration (IC50) in assay [1] and in assay [2] was 1 to 10 µM each time.
Regarding `O=C(c1c(O)cc(O)cc1OCc1ccccc1)N1CCc2cccc(NC3CCS(=O)(=O)C3)c2C1` (single isomer, unassigned) [Example 147a, (2-(Benzyloxy)-4,6-dihydroxyphenyl)(8-((1,1-dioxidotetrahydrothiophen-3-yl)amino)-3,4-dihydroisoquinolin-2(1H)-yl)methanone], the concentration for half-maximal inhibition (IC50) in assay [1] is under 1 µM; in assay [2], over 10 µM.
Take `CC(=O)N1CCC(Nc2cccc3c2CN(C(=O)c2c(O)cc(O)cc2OCc2ccccc2)C3)C1` (stereo not shown) [Example 36, 1-(3-((2-(2-(Benzyloxy)-4,6-dihydroxybenzoyl)isoindolin-4-yl)amino)pyrrolidin-1-yl)ethan-1-one]: the IC50 in assay [1] is under 1 µM; in assay [2], 1 to 10 µM.
In the same order, the values of `O=C(c1c(O)cc(O)cc1OCc1ccccc1)N1Cc2ccccc2C(O)C1` (single isomer, unassigned) [Example 51, (2-Benzyloxy-4,6-dihydroxy-phenyl)-(4-hydroxy-3,4-dihydro-1H-isoquinolin-2-yl)methanone] are 1 to 10 µM and over 10 µM.
In the same order, the values of `O=C(c1c(O)cc(O)cc1OCc1ccccc1)N1CCc2ccc(F)c(NC3CCOC3)c2C1` (stereo not shown) [Example 116, (2-(Benzyloxy)-4,6-dihydroxyphenyl)(7-fluoro-8-((tetrahydrofuran-3-yl)amino)-3,4-dihydroisoquinolin-2(1H)-yl)methanone] are 1 to 10 µM and 1 to 10 µM.
On to `CNCc1ccc2c(c1)CN(C(=O)c1c(O)cc(O)cc1OCc1ccccc1)C2` [Example 4, (2-(Benzyloxy)-4,6-dihydroxyphenyl)(5-((methylamino)methyl)isoindolin-2-yl)methanone], for which the IC50 in assay [1] and in assay [2] was under 1 µM each time.
On to `NCc1cccc2c1CN(C(=O)c1c(O)cc(O)cc1OCc1ccccc1)C2` [Example 83, (4-(Aminomethyl)isoindolin-2-yl)(2-(benzyloxy)-4,6-dihydroxyphenyl)methanone hydrochloride], for which the IC50 in assay [1] was under 1 µM; in assay [2] it was 1 to 10 µM.
In the same order, the values of `CN1CC(Nc2cccc3c2CN(C(=O)c2c(O)cc(O)cc2OCc2ccccc2)CC3)CC1=O` (single isomer, unassigned) [Example 61, 4-((2-(2-(Benzyloxy)-4,6-dihydroxybenzoyl)-1,2,3,4-tetrahydroisoquinolin-8-yl)amino)-1-methylpyrrolidin-2-one] are under 1 µM and over 10 µM.
On the same counts, the results for `O=C(c1c(O)cc(O)cc1OCC1CC1)N1Cc2cccc(NC3CCOC3)c2C1` (stereo not shown) [Example 25, (2-(Cyclopropylmethoxy)-4,6-dihydroxyphenyl)(4-((tetrahydrofuran-3-yl)amino)isoindolin-2-yl)methanone] are under 1 µM and 1 to 10 µM.
Turning to `CNC(=O)c1ccc2c(c1)CN(C(=O)c1c(O)cc(O)cc1OCc1ccccc1)C2` [Example 86, 2-(2-(Benzyloxy)-4,6-dihydroxybenzoyl)-N-methylisoindoline-5-carboxamide], the IC50 in assay [1] and in assay [2] was under 1 µM throughout.
`CC(=O)Nc1cccc2c1CN(C(=O)c1c(O)cc(O)cc1OCc1ccccc1)CC2` [Example 101, N-(2-(2-(benzyloxy)-4,6-dihydroxybenzoyl)-1,2,3,4-tetrahydroisoquinolin-8-yl)acetamide]: the IC50 in assay [1] and in assay [2] was 1 to 10 µM throughout.
